The subject of the series is mouse plasma stability, percent remaining. The series can be described thus: second set, compound stability in murine plasma, biochemical ADME (AID 624419). Particulars: at 1 µM.

The compound `COc1ccc(CNCc2cccc3ccccc23)cc1` had a plasma stability of 80.5%.

`CN(C)C1=C(Cl)C(=O)N(c2ccc(Cl)c(Cl)c2)C1=O`: the plasma stability was determined as 6.46%.

Regarding `O=C(CSc1cccc2cccnc12)N1CCCC1`, the plasma stability came to 100%.

The compound `CCCN(CCC)CCNC(=O)C1CCN(Cc2nc(-c3ccc(Cl)cc3)oc2C)CC1` gave a plasma stability of 100%.

With `N#C/C(=C\c1ccc([N+](=O)[O-])o1)c1nc2ccccc2[nH]1`, the plasma stability is 9.6%.

For the compound `C/C=C/Cn1c(SCCCc2ccccc2)nc2c1c(=O)[nH]c(=O)n2C`, the plasma stability amounted to 100%.

With `O=C1C2CC=CCC2C(=O)N1c1n[nH]c(-c2ccccc2)n1` (stereo not given), the plasma stability is 52.7%.

`O=C(O)c1cccnc1SCCc1ccccc1`: the plasma stability was found to be 100%.

`O=C(O)c1ccc(N2C(=O)/C(=C/c3ccc(-c4ccc([N+](=O)[O-])cc4)o3)C=C2c2ccccc2)cc1` gave a plasma stability of 99.7%.

`O=C(O)c1ccccc1OCc1ccccc1Br`: the plasma stability was 100%.

The compound `COc1ccc(S(=O)(=O)N2CCN(S(=O)(=O)c3ccc4c(c3)OCCO4)CC2)cc1` showed a plasma stability of 100%.

`COc1ccc(Sc2ccc(NC(=O)c3ccccc3Cl)cc2C#N)cc1` showed a plasma stability of 91.6%.

Compound `CN(C)c1oc(-c2ccc(OCc3ccc(Cl)cc3)cc2)nc1C#N` registered a plasma stability of 91.4%.

Turning to `Brc1cc2c(cc1C1Nc3ccccc3C3C=CCC31)OCO2` (stereo not given), the plasma stability turned out to be 100%.

Consider `O=c1[nH]c2c(s1)C(c1cccnc1)C1C3CCC(C3)C1S2` (stereo not given), for which the plasma stability came to 100%.

In the case of `Cc1cc(C)nc(-n2nc(C)c(Sc3ccc(F)cc3)c2N)n1`, the plasma stability is 93.6%.

In turn, `c1ccc2c(Nc3nnc(-c4ccncc4)s3)cccc2c1` registered a plasma stability of 96.4%.

With `O=C(COC(=O)C12CC3CC(CC(C3)C1)C2)NCc1ccco1`, the plasma stability is 2.35%.

`CC[C@H]1CN2CCc3cc(OC)c(OC)cc3[C@@H]2C[C@@H]1C[C@H]1NCCc2cc(OC)c(OC)cc21`: the plasma stability was found to be 100%.

In turn, `Cc1ccc(-n2c(N)c(C#N)c(-c3ccccc3)c(C#N)c2=O)cc1` gave a plasma stability of 100%.

In turn, `O=[N+]([O-])c1ccc(CN2CCOCCOCCN(Cc3ccc([N+](=O)[O-])cc3)CCOCC2)cc1` registered a plasma stability of 100%.

Compound `CS(=O)(=O)c1ccc(C(=O)OCC(=O)NC23CC4CC(CC(C4)C2)C3)cc1[N+](=O)[O-]` registered a plasma stability of 91.4%.

As to `Cc1ccc(C)c(NS(=O)(=O)c2cc(C(=O)Nc3ccccc3-c3ccccc3)ccc2Cl)c1`, the plasma stability turned out to be 83.4%.

Take `CSc1nc(-c2ccc(C)cc2)nc(C(Cl)Cl)n1`: the plasma stability was 84.8%.

For `O=C(CCNS(=O)(=O)c1cccc2nsnc12)N1CCN(c2ccccn2)CC1`, the plasma stability stood at 100%.

In turn, `CCCOc1ccc(-c2nc(OC)c3ccccc3n2)cc1` returned a plasma stability of 100%.

`COc1ccc(OC)c(S(=O)(=O)Nc2cnc3ccccc3c2)c1` had a plasma stability of 100%.

`O=C(COc1ccccc1Br)NCCc1nc2ccccc2[nH]1` displayed a plasma stability of 100%.

Regarding `Cc1ccc(NC(=O)CCC(=O)N/N=C/c2ccc([N+](=O)[O-])o2)cc1C`, the plasma stability is 73.3%.

Compound `Cc1cc(-c2nnc3n2CCCCC3)c(C)n1-c1ccccc1` gave a plasma stability of 91.3%.

As for `Cc1nc(SCc2nc3ccccc3[nH]2)c2oc3ccccc3c2n1`, the plasma stability was 100%.

`COc1ccccc1N(/N=C1\Sc2ccccc2C1=O)C(C)=O` had a plasma stability of 4.35%.

`N#Cc1ccccc1CSc1nc2ncc(Br)cc2[nH]1` gave a plasma stability of 100%.

With `Cc1ccc(S(=O)(=O)NCc2ccc(C(=O)NCCN(Cc3ccccc3)C(C)C)cc2)cc1`, the plasma stability was found to be 100%.

`O=C(O)CCC(NS(=O)(=O)c1ccc(-c2ccccc2)cc1)C(=O)O` (stereo not given) returned a plasma stability of 88.8%.

With `COc1ccc(S(=O)(=O)n2nc(OC(=O)c3ccccc3)cc2N)cc1`, the plasma stability stood at 73.7%.

In turn, `CC(=O)c1ccc(N2CCN(S(=O)(=O)c3ccc4c(c3)CC(=O)N4)CC2)cc1` came in with a plasma stability of 100%.

The compound `Cn1cnc([N+](=O)[O-])c1Sc1ncnc2nc[nH]c12` yielded a plasma stability of 84.1%.

On to `CCc1nnc(NC(=O)c2ccc(NS(=O)(=O)c3ccccc3)cc2)s1`, for which the plasma stability was 97.6%.

In turn, `O=C1CCCC2=C1C1(CCCC1)N=C(Nc1nc3ccccc3o1)N2` yielded a plasma stability of 100%.

The compound `COc1ccc(OC)c(-c2nnc3n2N=C(c2ccc(OC)c(OC)c2)CS3)c1` yielded a plasma stability of 100%.

In turn, `COc1ccc(N(C(=O)CCl)C(C(=O)NCCc2ccccc2)c2cccs2)cc1Cl` (stereo not given) gave a plasma stability of 15.3%.

The compound `Cc1ccc(C(=O)n2c3ccccc3c3ccccc32)cc1` yielded a plasma stability of 100%.

Consider `C=CCn1c(SCC(=O)c2ccc(O)c(O)c2)nnc1-c1ccccc1OC`, for which the plasma stability stood at 73.5%.

`Cc1cc2c(s1)c1cnn(Cc3ccccc3F)c(=O)c1n2C`: the plasma stability was 89.8%.

In turn, `CCN1CCN(c2nc3ccccc3nc2C(C#N)C(=O)OC2CCCCC2)CC1` (stereo not given) displayed a plasma stability of 15.5%.

For the compound `CC1CCCN(C(C(=O)Nc2ccc3c(c2)OCCO3)c2ccccc2)C1` (stereo not given), the plasma stability stood at 100%.

Take `O=S1(=O)Nc2c(ccc3cccnc23)-c2ccccc21`: the plasma stability came out at 100%.

`COc1nc(-c2ccccc2)nnc1-c1ccccc1` came in with a plasma stability of 100%.

In turn, `COc1cccc(-c2nc(-c3ccc(NC(=O)Cc4ccccc4OC)cc3)no2)c1` had a plasma stability of 100%.

`CCCN1CNc2c(c(=O)[nH]c(=S)n2CCc2ccc(OC)c(OC)c2)C1` gave a plasma stability of 99.5%.

As to `O=S(=O)(NC1CCCCC1N1CCOCC1)c1ccc(Cl)cc1` (stereo not given), the plasma stability turned out to be 100%.

`NC(=O)C1CCN(c2nc(-c3ccc(Br)cc3)cs2)CC1` yielded a plasma stability of 82.8%.

As to `COc1ccc(C2CC(c3ccccc3)=NN2c2ccc(S(N)(=O)=O)cc2)cc1` (stereo not given), the plasma stability came out at 100%.

Regarding `Cc1cc(C)n(-c2nc(NCCCO)c3c4c(sc3n2)CCCC4)n1`, the plasma stability was 100%.

`CCOc1ccc(-c2nc(-c3ccncc3)no2)cc1OCC` had a plasma stability of 92.1%.

Take `Cc1ccc(N2CCN(S(=O)(=O)N3CCCCC3)CC2)c(C)c1`: the plasma stability came out at 100%.

`CCCn1ncc(CN2CCCC(C(=O)c3cccc(OC(C)C)c3)C2)c1C` (stereo not given) came in with a plasma stability of 96.7%.

For the compound `Cc1cccc(-n2cnc3cc(C(=O)N4CCCCC4)ccc32)c1`, the plasma stability was 87.1%.

In the case of `O=C(c1ccccn1)N(Cc1cccs1)C1(C(=O)NC2CCCCC2)CCCCC1`, the plasma stability is 100%.

On to `CCOC(=O)C(C)Oc1cccc2c(=O)n(CC(=O)Nc3ccc4c(c3)OCCO4)ccc12` (stereo not given), for which the plasma stability worked out at 0.19%.

For `CN(C)c1nc(N)nc(CSc2nnnn2-c2cccc3ccccc23)n1`, the plasma stability was found to be 100%.

`CCOc1ccc(NC(=S)N2CCC(C(O)(c3ccccc3)c3ccccc3)CC2)cc1` came in with a plasma stability of 73.7%.

In turn, `Brc1ccc2c(c1)CN1CCCC1=N2` had a plasma stability of 100%.

Compound `O=C1NCCCc2c1oc1ccc(O)cc21` displayed a plasma stability of 97.2%.

Compound `CC(C)C(=O)NC(c1ccco1)c1ccc2cccnc2c1O` (stereo not given) gave a plasma stability of 95.2%.

`COc1ccc(C2c3c(ncn(CCN4CCOCC4)c3=N)Oc3ccc4ccccc4c32)cc1OC` (stereo not given): the plasma stability came to 100%.

The compound `O=c1[nH]c(SCc2ccc(Cl)cc2)nc2c1CCC2` gave a plasma stability of 100%.

Consider `Cc1ccc(C)c(OCCn2cc(C(=O)O)c3ccccc32)c1`, for which the plasma stability amounted to 94.8%.

Compound `Cc1ccnc(NC(=O)CCCOc2cc(=O)n(C)c3ccccc23)c1` displayed a plasma stability of 0.15%.

The compound `CCCc1cc(C(=O)N(C2CCCCC2)C2CCCCC2)no1` came in with a plasma stability of 84%.

`Cc1ccc(S(=O)(=O)n2c(N)nc3ccccc32)cc1` displayed a plasma stability of 100%.

Compound `Cc1ccccc1N1CCN(c2ncnc3c2cnn3Cc2ccc(Cl)cc2)CC1` came in with a plasma stability of 100%.

As for `COc1ccc(CSc2nc(C)cc(=O)[nH]2)cc1`, the plasma stability is 100%.

With `c1ccc(-c2nnc(N3CCOCC3)nc2-c2ccccc2)cc1`, the plasma stability was 100%.

For the compound `COc1cc(NC(=O)c2cc(C3CC3)on2)c(OC)cc1Cl`, the plasma stability was 42.4%.

Regarding `COC(=O)c1ccccc1NC(=O)c1ccc(F)cc1`, the plasma stability came out at 17%.

`c1ccc(CC2CCN(c3ncnc4sccc34)CC2)cc1` showed a plasma stability of 100%.

For the compound `CCCc1nc2c(=O)n(C)c(=O)nc-2n(C)n1`, the plasma stability was 56.7%.

On to `Cc1ccc(S(=O)(=O)C(c2ccccc2)c2c(C)noc2C)cc1` (stereo not given), for which the plasma stability was determined as 97.8%.

For `CCc1oc2ccccc2c1C(=O)c1cc(Br)c(O)c(Br)c1`, the plasma stability was found to be 100%.

Take `Cn1nnnc1Sc1ncnc2scc(-c3ccccc3)c12`: the plasma stability was determined as 81.9%.

The compound `Cc1ccc(NS(=O)(=O)c2ccc3c(c2)CCC(=O)N3)cc1C` had a plasma stability of 100%.

The compound `CCCC(=O)Nc1cccc(NC(=O)c2ccccc2Br)c1` showed a plasma stability of 0.14%.

Consider `Cc1cc(C(=O)CN2C(=O)CCC2=O)c(C)n1Cc1ccccc1`, for which the plasma stability is 98%.

(Values after PubChem BioAssay AID624419 (Sanford-Burnham Center for Chemical Genomics, 2012).)
